US6348309B1, “Process for inactivating viruses in blood and blood products” (priority 1989, dated 2002)
Marks after values point to notes of the source that are not given here.

Tests used:
[1] = test system: adeno-virus; assay: Photodynamic treatment of adenovirus with freeze/thaw step (Example 8); format: cell-based
[2] = test system: VSV; format: cell-based, vesicular stomatitis virus
[3] = test system: HIV-1; assay: MB/light treatment of HIV-1 in plasma, infectivity on MT-4 cells (Example 5); format: cell-based
[4] = test system: West Nile; assay: MB/light virus inactivation in plasma (Example 6, Table VI); format: cell-based; details: illumination 60 min
[5] = molecular target: T1, factor VIII (Homo sapiens, UniProt P00451); assay: Factor VIII content of plasma after MB and adsorbing agent (Example 14); format: biochemical; details: fresh plasma + MB 10 μM, no adsorbing agent
T1 construct: MB was added to 250 ml fresh plasma; from tissue; host or cells: fresh plasma

[6] = test system: VSV; format: cell-based, vesicular stomatitis virus; remark: listed apart in the source
[7] = test system: HIV-2; assay: MB/light virus inactivation in plasma (Example 6, Table VI); format: cell-based; details: illumination 15 min; * production conditions, plastic bag 250-300 ml plasma
[8] = test system: adenovirus; assay: Photodynamic treatment of adenovirus with pre-incubation in the dark, titrated on FL cells (Example 7); format: cell-based; details: MB 1 μM; for Virus Titer: illumination 30 min 150,000 Lux
[9] = test system: VSV; format: cell-based, vesicular stomatitis virus; remark: listed apart in the source
[10] = test system: SV40; format: cell-based
[11] = test system: Suid Herpes Type 1; format: cell-based
[12] = molecular target: T2, coagulation factor IX (Homo sapiens, UniProt P00740); assay: Coagulation factor activity in human plasma with MB and light exposure (Example 10); format: biochemical
T2 construct: Varying amounts of MB were added to human plasma (2 ml aliquots); from tissue; host or cells: human plasma

[13] = test system: Bovine Herpes; assay: MB/light virus inactivation in plasma (Example 6, Table VI); format: cell-based; details: illumination 30 min; * production conditions, plastic bag 250-300 ml plasma
[14] = test system: Vesicular Stomatitis; format: cell-based
[15] = molecular target: T3, coagulation factor V (Homo sapiens, UniProt P12259); assay: Coagulation factor activity in human plasma with MB and light exposure (Example 10); format: biochemical
T3 construct: Varying amounts of MB were added to human plasma (2 ml aliquots); from tissue; host or cells: human plasma

[16] = test system: Hog Cholera; format: cell-based
[17] = test system: Semliki Forest; format: cell-based
[18] = 1 to 2 mg/kg of body weight; cited from earlier work
[19] = molecular target: T4, factor V (Homo sapiens, UniProt P12259); assay: Factor V content of plasma after MB and adsorbing agent (Example 14); format: biochemical; details: fresh plasma + MB 10 μM, no adsorbing agent
T4 construct: MB was added to 250 ml fresh plasma; from tissue; host or cells: fresh plasma
T4 sequence (P12259 29-2224): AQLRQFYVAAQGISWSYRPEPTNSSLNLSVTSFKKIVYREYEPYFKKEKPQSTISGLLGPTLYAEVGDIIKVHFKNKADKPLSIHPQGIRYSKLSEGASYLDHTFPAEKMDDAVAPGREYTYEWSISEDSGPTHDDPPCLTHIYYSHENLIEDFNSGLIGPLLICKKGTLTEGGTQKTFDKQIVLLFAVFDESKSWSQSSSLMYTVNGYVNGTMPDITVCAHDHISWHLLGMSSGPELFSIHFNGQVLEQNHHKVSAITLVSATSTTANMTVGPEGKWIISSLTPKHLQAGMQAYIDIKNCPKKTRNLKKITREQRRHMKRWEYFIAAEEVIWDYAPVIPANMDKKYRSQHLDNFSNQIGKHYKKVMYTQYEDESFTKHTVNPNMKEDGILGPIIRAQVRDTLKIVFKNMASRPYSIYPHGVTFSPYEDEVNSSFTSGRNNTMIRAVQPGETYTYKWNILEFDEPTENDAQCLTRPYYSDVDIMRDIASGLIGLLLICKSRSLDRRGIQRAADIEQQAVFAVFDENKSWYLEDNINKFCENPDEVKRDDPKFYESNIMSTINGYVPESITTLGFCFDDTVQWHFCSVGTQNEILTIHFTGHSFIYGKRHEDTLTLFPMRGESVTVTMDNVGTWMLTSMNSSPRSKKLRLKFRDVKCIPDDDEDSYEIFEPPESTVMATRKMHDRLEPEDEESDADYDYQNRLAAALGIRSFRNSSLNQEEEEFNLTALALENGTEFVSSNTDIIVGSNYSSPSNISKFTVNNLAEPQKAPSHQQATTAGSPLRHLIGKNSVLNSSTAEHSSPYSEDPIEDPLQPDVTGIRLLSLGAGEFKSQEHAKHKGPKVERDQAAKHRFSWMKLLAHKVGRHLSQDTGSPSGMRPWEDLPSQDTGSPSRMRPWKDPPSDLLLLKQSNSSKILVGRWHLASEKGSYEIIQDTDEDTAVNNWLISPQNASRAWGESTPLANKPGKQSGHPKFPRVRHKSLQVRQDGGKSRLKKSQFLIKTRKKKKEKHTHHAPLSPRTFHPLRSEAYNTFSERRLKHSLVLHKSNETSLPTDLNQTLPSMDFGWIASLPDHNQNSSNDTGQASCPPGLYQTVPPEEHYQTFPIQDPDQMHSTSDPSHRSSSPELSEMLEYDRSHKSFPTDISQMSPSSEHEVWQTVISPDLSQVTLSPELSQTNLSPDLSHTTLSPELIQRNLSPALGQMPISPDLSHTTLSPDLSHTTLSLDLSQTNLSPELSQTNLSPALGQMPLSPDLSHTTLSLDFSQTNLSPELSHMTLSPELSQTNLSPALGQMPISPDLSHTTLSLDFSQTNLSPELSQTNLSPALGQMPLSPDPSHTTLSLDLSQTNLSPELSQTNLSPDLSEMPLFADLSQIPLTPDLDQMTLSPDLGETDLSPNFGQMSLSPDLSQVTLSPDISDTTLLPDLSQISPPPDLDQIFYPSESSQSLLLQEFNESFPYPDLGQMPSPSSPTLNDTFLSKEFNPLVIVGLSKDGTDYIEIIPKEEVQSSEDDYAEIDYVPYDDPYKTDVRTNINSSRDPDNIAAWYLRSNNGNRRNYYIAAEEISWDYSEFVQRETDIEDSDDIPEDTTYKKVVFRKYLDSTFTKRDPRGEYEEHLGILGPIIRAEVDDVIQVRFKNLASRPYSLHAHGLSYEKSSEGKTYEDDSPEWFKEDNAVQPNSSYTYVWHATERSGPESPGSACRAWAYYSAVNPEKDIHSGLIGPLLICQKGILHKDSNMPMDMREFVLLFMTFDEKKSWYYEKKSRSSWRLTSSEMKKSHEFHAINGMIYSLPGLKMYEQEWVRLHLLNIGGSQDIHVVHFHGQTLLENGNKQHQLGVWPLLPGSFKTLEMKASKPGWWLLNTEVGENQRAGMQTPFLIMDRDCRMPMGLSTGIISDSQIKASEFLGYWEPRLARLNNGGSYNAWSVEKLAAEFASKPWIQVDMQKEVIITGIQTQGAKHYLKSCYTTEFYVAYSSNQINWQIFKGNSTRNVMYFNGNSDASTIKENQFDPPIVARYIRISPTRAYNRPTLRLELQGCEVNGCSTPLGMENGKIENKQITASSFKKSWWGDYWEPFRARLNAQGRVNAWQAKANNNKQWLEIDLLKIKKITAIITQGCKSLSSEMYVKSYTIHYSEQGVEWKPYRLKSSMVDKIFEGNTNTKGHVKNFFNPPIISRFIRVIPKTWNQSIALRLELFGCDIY

T3 sequence (P12259 29-2224): as above
T2 sequence (P00740 47-461): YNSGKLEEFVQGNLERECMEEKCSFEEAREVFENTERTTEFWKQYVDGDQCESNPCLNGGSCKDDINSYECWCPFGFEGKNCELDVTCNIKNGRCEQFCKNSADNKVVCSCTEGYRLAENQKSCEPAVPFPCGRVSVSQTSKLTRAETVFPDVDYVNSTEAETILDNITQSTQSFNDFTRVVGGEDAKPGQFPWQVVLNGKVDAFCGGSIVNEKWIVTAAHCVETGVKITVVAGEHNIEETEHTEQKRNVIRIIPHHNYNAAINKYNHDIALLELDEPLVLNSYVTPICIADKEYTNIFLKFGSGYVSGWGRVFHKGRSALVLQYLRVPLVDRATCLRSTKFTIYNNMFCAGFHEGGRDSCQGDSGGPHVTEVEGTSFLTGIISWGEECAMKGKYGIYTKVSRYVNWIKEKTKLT
T1 sequence (P00451 20-1332 limits assumed): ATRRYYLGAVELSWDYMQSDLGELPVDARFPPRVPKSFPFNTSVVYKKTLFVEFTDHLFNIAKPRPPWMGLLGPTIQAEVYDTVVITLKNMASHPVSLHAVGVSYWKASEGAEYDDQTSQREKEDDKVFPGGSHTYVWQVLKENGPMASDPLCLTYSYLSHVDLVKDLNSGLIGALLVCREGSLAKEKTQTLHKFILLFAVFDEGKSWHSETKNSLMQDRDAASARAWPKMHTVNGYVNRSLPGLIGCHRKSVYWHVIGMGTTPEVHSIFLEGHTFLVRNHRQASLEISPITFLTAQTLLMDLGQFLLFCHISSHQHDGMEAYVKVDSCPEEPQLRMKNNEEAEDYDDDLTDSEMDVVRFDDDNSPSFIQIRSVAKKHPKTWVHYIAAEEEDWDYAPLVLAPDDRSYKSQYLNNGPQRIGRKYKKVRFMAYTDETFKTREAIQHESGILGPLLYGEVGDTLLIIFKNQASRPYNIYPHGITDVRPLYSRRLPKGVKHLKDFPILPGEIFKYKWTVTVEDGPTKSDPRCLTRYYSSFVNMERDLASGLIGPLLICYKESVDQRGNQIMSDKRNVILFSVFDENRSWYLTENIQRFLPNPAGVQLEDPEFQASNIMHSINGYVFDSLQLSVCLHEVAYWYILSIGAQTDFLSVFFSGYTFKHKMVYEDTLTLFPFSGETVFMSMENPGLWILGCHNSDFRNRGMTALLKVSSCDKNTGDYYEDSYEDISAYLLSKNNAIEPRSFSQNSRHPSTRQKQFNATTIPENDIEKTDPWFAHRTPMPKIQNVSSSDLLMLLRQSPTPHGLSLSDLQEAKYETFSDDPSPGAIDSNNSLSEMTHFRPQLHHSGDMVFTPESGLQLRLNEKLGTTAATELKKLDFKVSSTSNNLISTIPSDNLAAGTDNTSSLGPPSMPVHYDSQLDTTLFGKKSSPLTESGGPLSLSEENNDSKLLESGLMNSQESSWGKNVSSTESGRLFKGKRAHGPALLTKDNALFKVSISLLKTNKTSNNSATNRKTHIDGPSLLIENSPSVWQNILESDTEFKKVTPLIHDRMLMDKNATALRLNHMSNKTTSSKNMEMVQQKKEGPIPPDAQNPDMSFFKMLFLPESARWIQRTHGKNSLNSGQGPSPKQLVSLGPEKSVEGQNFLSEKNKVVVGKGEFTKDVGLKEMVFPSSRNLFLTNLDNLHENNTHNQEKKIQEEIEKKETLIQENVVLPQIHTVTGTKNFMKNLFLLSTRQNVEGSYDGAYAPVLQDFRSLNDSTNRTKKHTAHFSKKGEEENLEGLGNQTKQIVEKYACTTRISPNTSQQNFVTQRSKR
T1 sequence (P00451 1668-2351 limits assumed): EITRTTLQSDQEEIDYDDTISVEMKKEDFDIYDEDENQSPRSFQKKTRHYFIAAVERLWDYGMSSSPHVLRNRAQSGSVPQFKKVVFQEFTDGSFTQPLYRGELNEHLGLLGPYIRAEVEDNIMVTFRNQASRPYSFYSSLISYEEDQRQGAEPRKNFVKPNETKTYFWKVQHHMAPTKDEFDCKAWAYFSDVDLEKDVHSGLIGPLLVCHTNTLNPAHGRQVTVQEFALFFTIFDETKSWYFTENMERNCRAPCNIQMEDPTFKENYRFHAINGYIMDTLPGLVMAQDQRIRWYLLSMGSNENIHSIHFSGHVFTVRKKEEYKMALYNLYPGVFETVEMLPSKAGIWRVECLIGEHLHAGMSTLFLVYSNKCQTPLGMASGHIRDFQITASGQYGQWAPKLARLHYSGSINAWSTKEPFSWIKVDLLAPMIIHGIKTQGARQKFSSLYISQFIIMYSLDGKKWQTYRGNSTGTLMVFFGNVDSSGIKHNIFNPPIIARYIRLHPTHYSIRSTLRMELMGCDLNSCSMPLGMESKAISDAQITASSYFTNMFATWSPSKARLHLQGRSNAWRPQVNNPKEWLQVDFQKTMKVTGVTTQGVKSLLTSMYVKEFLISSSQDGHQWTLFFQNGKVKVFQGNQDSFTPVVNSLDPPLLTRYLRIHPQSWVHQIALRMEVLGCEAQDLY

## CN(C)c1ccc2nc3ccc(=[N+](C)C)cc-3sc2c1 [MB, methylene blue]
[1]; Sample C: F/T + MB + 60 min pre-incubation + 60 min irradiation
  Virus Titer: 2.5 Log10 TCID50
[1]; Sample D: MB + F/T, no irradiation
  Virus Titer: 7.5 Log10 TCID50
[1]; Sample E: MB + F/T + 10 min irradiation
  Virus Titer: 5.0 Log10 TCID50
[1]; Sample F: MB + F/T + 30 min irradiation
  Virus Titer: 5.0 Log10 TCID50
[1]; Sample G: MB + F/T + 60 min irradiation
  Virus Titer: 4.0 Log10 TCID50
[2]
  reduction of infectious VSV titer: more than 6 log10
[3]; MB 1 μM, no illumination
  effect of the dye alone on the virus: not detrimental to the virus
[3]; MB 1 μM, within the first 10 minutes of light exposure
  reduction of viral infectivity: approx. 6 log10 steps
[3]; Sample A, MB 1 μM without light, 0 min
  Log10 TCID50/ml HIV-1: 6.00 Log10 TCID50/ml
[3]; Sample A, MB 1 μM without light, 2 min
  Log10 TCID50/ml HIV-1: 5.94 Log10 TCID50/ml
[3]; Sample A, MB 1 μM without light, 5 min
  Log10 TCID50/ml HIV-1: 5.94 Log10 TCID50/ml
[3]; Sample A, MB 1 μM without light, 10 min
  Log10 TCID50/ml HIV-1: 5.94 Log10 TCID50/ml
[3]; Sample A, MB 1 μM without light, 15 min
  Log10 TCID50/ml HIV-1: 6.06 Log10 TCID50/ml
[3]; Sample A, MB 1 μM without light, 30 min
  Log10 TCID50/ml HIV-1: 5.76 Log10 TCID50/ml
[3]; Sample A, MB 1 μM without light, 60 min
  Log10 TCID50/ml HIV-1: 5.70 Log10 TCID50/ml
[3]; Sample C, MB 1 μM + light 45,000 Lux, exposure 0 min
  Log10 TCID50/ml HIV-1: 5.82 Log10 TCID50/ml
[3]; Sample C, MB 1 μM + light 45,000 Lux, exposure 2 min
  Log10 TCID50/ml HIV-1: 3.37 Log10 TCID50/ml
[3]; Sample C, MB 1 μM + light 45,000 Lux, exposure 5 min
  Log10 TCID50/ml HIV-1: 1.5 Log10 TCID50/ml
[3]; Sample C, MB 1 μM + light 45,000 Lux, exposure 10 min
  Log10 TCID50/ml HIV-1: ≦0.5 Log10 TCID50/ml
[3]; Sample C, MB 1 μM + light 45,000 Lux, exposure 15 min
  Log10 TCID50/ml HIV-1: ≦0.5 Log10 TCID50/ml
[3]; Sample C, MB 1 μM + light 45,000 Lux, exposure 30 min
  Log10 TCID50/ml HIV-1: ≦0.5 Log10 TCID50/ml
[3]; Sample C, MB 1 μM + light 45,000 Lux, exposure 60 min
  Log10 TCID50/ml HIV-1: ≦0.5 Log10 TCID50/ml
[4]
  Inactivation Rate: >6.50 log10 TCID50
[5]
  Factor VIII: 0.42 U/ml
[6]
  inactivation of VSV: only partial inactivation
  time until viral infectivity almost completely reduced to the detection limit: 15 to 30 min
[7]
  Inactivation Rate: >3.81 * log10 TCID50
[8]; pre-incubation 0 h
  Virus Titer: 6.0 log10 TCID50
[8]; pre-incubation 1 h
  Virus Titer: 5.5 log10 TCID50
[8]; pre-incubation 4 h
  Virus Titer: 6.0 log10 TCID50
[8]; pre-incubation 24 h
  Virus Titer: 6.0 log10 TCID50
[8]; regardless of the pre-incubation time
  change in viral infectivity: no change in viral infectivity
[9]
  concentration of MB required for complete inactivation of VSV: 0.5 µM
  inactivation factor (VSV completely inactivated): more than 4 log10
[10]
  Inactivation Rate: >4.00 log10 TCID50
[11]
  Inactivation Rate: 4.43 * log10 TCID50
[12]; light exposure 0 h, MB 1 μM
  Factor IX: 1.20 E/ml
[12]; light exposure 0 h, MB 2.5 μM
  Factor IX: 0.46 E/ml
[12]; light exposure 0 h, MB 10 μM
  Factor IX: 0.44 E/ml
[12]; light exposure 1 h, MB 1 μM
  Factor IX: 0.92 E/ml
[12]; light exposure 1 h, MB 2.5 μM
  Factor IX: 0.82 E/ml
[12]; light exposure 1 h, MB 10 μM
  Factor IX: 0.68 E/ml
[12]; light exposure 2 h, MB 1 μM
  Factor IX: 0.90 E/ml
[12]; light exposure 2 h, MB 2.5 μM
  Factor IX: 0.72 E/ml
[12]; light exposure 2 h, MB 10 μM
  Factor IX: 0.74 E/ml
[12]; light exposure 4 h, MB 1 μM
  Factor IX: 0.94 E/ml
[12]; light exposure 4 h, MB 2.5 μM
  Factor IX: 0.82 E/ml
[12]; light exposure 4 h, MB 10 μM
  Factor IX: 0.64 E/ml
[13]
  Inactivation Rate: >8.11 * log10 TCID50
[14]
  Inactivation Rate: >4.89 * log10 TCID50
[15]; light exposure 0 h, MB 1 μM
  Factor V: 0.86 E/ml
[15]; light exposure 0 h, MB 2.5 μM
  Factor V: 0.82 E/ml
[15]; light exposure 0 h, MB 10 μM
  Factor V: 0.72 E/ml
[15]; light exposure 1 h, MB 1 μM
  Factor V: 0.72 E/ml
[15]; light exposure 1 h, MB 2.5 μM
  Factor V: 0.68 E/ml
[15]; light exposure 1 h, MB 10 μM
  Factor V: 0.47 E/ml
[15]; light exposure 2 h, MB 1 μM
  Factor V: 0.64 E/ml
[15]; light exposure 2 h, MB 2.5 μM
  Factor V: 0.68 E/ml
[15]; light exposure 2 h, MB 10 μM
  Factor V: 0.60 E/ml
[15]; light exposure 4 h, MB 1 μM
  Factor V: 0.56 E/ml
[15]; light exposure 4 h, MB 2.5 μM
  Factor V: 0.49 E/ml
[15]; light exposure 4 h, MB 10 μM
  Factor V: 0.42 E/ml
[16]
  Inactivation Rate: >5.92 * log10 TCID50
[17]
  Inactivation Rate: >7.00 log10 TCID50
[18]
  side effects in therapeutic use: without any significant side effects
[19]
  Factor V: 0.96 U/ml
